Calls of active or inactive are those of the source. How the calls were made is not given here.
System: rodent carcinogenicity bioassays, tumor incidence
Experiment: CCRIS carcinogenicity studies
Conditions: Dose: 0, Dose: 0
Summary of the method: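 NCI-built, expert-reviewed records of carcinogenicity and related test outcomes (mutagenicity, tumor promotion/inhibition) compiled from published and report sources, historical span 1985-2011, not updated.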

Measured: carcinogen call

C=CC(=O)OCC
inactive: Species: MOUSE, Strain/Sex: B6C3F1/FEMALE, Route: INHALATION, 5 PPM 6 HR/D 5 D/WK FOR 24 MO (STUDY DURATION: 24 MO) inactive; negative | Species: MOUSE, Strain/Sex: B6C3F1/FEMALE, Route: INHALATION, 25, 75 PPM 6 HR/D 5 D/WK FOR 27 MO (STUDY DURATION: 27 MO), 25, 75 PPM 6 HR/D 5 D/WK FOR 27 MO (STUDY DURATION: 27 MO) inactive; negative | Species: MOUSE, Strain/Sex: B6C3F1/FEMALE, Route: INHALATION, 225 PPM 6 HR/D 5 D/WK FOR 6 MO (STUDY DURATION: 27 MO) inactive; negative | Species: MOUSE, Strain/Sex: B6C3F1/MALE, Route: INHALATION, 5 PPM 6 HR/D 5 D/WK FOR 24 MO (STUDY DURATION: 24 MO) inactive; negative | Species: MOUSE, Strain/Sex: B6C3F1/MALE, Route: INHALATION, 25, 75 PPM 6 HR/D 5 D/WK FOR 27 MO (STUDY DURATION: 27 MO), 25, 75 PPM 6 HR/D 5 D/WK FOR 27 MO (STUDY DURATION: 27 MO) inactive; negative | Species: MOUSE, Strain/Sex: B6C3F1/MALE, Route: INHALATION, 225 PPM 6 HR/D 5 D/WK FOR 6 MO (STUDY DURATION: 27 MO) inactive; negative | Species: MOUSE, Strain/Sex: C3H/MALE, Route: DERMAL, 23 MG IN 25 µL ACETONE 3/WK FOR LIFESPAN (STUDY DURATION: LIFESPAN) inactive; negative | Species: MOUSE, Strain/Sex: TGAC/FEMALE, Route: DERMAL, 60, 300, 600 UMOL IN 200 µL ACETONE 3/WK FOR 20 WK (STUDY DURATION: 20 WK), 60, 300, 600 UMOL IN 200 µL ACETONE 3/WK FOR 20 WK (STUDY DURATION: 20 WK) inactive; negative | Species: RAT, Strain/Sex: F344/FEMALE, Route: INHALATION, 5 PPM 6 HR/D 5 D/WK FOR 24 MO (STUDY DURATION: 24 MO) inactive; negative | Species: RAT, Strain/Sex: F344/FEMALE, Route: INHALATION, 25, 75 PPM 6 HR/D 5 D/WK FOR 27 MO (STUDY DURATION: 27 MO), 25, 75 PPM 6 HR/D 5 D/WK FOR 27 MO (STUDY DURATION: 27 MO) inactive; negative | Species: RAT, Strain/Sex: F344/FEMALE, Route: INHALATION, 225 PPM 6 HR/D 5 D/WK FOR 6 MO (STUDY DURATION: 27 MO) inactive; negative | Species: RAT, Strain/Sex: F344/MALE, Route: INHALATION, 5 PPM 6 HR/D 5 D/WK FOR 24 MO (STUDY DURATION: 24 MO) inactive; negative | Species: RAT, Strain/Sex: F344/MALE, Route: INHALATION, 25, 75 PPM 6 HR/D 5 D/WK FOR 27 MO (STUDY DURATION: 27 MO), 25, 75 PPM 6 HR/D 5 D/WK FOR 27 MO (STUDY DURATION: 27 MO) inactive; negative | Species: RAT, Strain/Sex: F344/MALE, Route: INHALATION, 225 PPM 6 HR/D 5 D/WK FOR 6 MO (STUDY DURATION: 27 MO) inactive; negative
active: Species: MOUSE, Strain/Sex: B6C3F1/FEMALE, Route: GAVAGE, 100, 200 MG/KG IN CORN OIL FOR 103 WK, 100, 200 MG/KG IN CORN OIL FOR 103 WK, Tumor Site: Type of Lesion: FORESTOMACH: SQUAMOUS CELL PAPILLOMA OR CARCINOMA active; positive | Species: MOUSE, Strain/Sex: B6C3F1/MALE, Route: GAVAGE, 100, 200 MG/KG IN CORN OIL FOR 103 WK, 100, 200 MG/KG IN CORN OIL FOR 103 WK, Tumor Site: Type of Lesion: FORESTOMACH: SQUAMOUS CELL PAPILLOMA, SQUAMOUS CELL CARCINOMA active; positive | Species: RAT, Strain/Sex: F344/FEMALE, Route: GAVAGE, 100, 200 MG/KG IN CORN OIL FOR 103 WK, 100, 200 MG/KG IN CORN OIL FOR 103 WK, Tumor Site: Type of Lesion: FORESTOMACH: SQUAMOUS CELL PAPILLOMA, SQUAMOUS CELL PAPILLOMA OR CARCINOMA active; positive | Species: RAT, Strain/Sex: F344/MALE, Route: GAVAGE, 100, 200 MG/KG IN CORN OIL FOR 103 WK, 100, 200 MG/KG IN CORN OIL FOR 103 WK, Tumor Site: Type of Lesion: FORESTOMACH: SQUAMOUS CELL PAPILLOMA, SQUAMOUS CELL CARCINOMA active; positive

CC(N)Cc1ccccc1 (stereo unspecified)
inactive: Species: MOUSE, Strain/Sex: B6C3F1/FEMALE, Route: ORAL, 20, 100 PPM IN DIET FOR 103 WK (STUDY DURATION: 105 WK), 20, 100 PPM IN DIET FOR 103 WK (STUDY DURATION: 105 WK) inactive; negative | Species: MOUSE, Strain/Sex: B6C3F1/MALE, Route: ORAL, 20, 100 PPM IN DIET FOR 103 WK (STUDY DURATION: 105 WK), 20, 100 PPM IN DIET FOR 103 WK (STUDY DURATION: 105 WK) inactive; negative | Species: RAT, Strain/Sex: F344/FEMALE, Route: ORAL, 20, 100 PPM IN DIET FOR 103 WK (STUDY DURATION: 105 WK), 20, 100 PPM IN DIET FOR 103 WK (STUDY DURATION: 105 WK) inactive; negative | Species: RAT, Strain/Sex: F344/MALE, Route: ORAL, 20, 100 PPM IN DIET FOR 103 WK (STUDY DURATION: 105 WK), 20, 100 PPM IN DIET FOR 103 WK (STUDY DURATION: 105 WK) inactive; negative

CCOC(=O)NCCOc1ccc(Oc2ccccc2)cc1
active: Species: Mouse, Strain/Sex: CD-1/Male (50/Group), Route: Oral, 30, 110, 420 ppm of 96.6% fenoxycarb in diet for 80 wk, study duration 80 wk, 30, 110, 420 ppm of 96.6% fenoxycarb in diet for 80 wk, study duration 80 wk, Tumor Site: Type of Lesion: Lung: alveolar/bronchial adenomas and carcinomas, significant at 420 ppm only active; positive
inactive: Species: Mouse, Strain/Sex: CD-1/Female (50/Group), Route: Oral, 30, 110, 420 ppm of 96.6% fenoxycarb in diet for 80 wk, study duration 80 wk, 30, 110, 420 ppm of 96.6% fenoxycarb in diet for 80 wk, study duration 80 wk inactive; negative | Species: Rat, Strain/Sex: Crl:CD(SD)BR/Female (50/Group), Route: Oral, 200, 600, 1800 ppm of 96.6% fenoxycarb in diet for 104 wk, study duration 104 wk, 200, 600, 1800 ppm of 96.6% fenoxycarb in diet for 104 wk, study duration 104 wk inactive; negative | Species: Rat, Strain/Sex: Crl:CD(SD)BR/Male (50/Group), Route: Oral, 200, 600, 1800 ppm of 96.6% fenoxycarb in diet for 104 wk, study duration 104 wk, 200, 600, 1800 ppm of 96.6% fenoxycarb in diet for 104 wk, study duration 104 wk inactive; negative

From PubChem BioAssay AID1259411 (Chemical Carcinogenesis Research Information System (CCRIS), 2018)
